Results from PMC12022980, “Rational Design of PROTAC Linkers Featuring Ferrocene as a Molecular Hinge to Enable Dynamic Conformational Changes” (Journal of the American Chemical Society, 2025).
pIC50: −log10 of the molar value. In brackets after ≈: the same amount, converted by molar mass. Where two headings read alike, the source gives them in different places.

What was measured:
[1] = Mouse liver microsome stability; type: in vitro ADME; settings: liver microsomes; for CLint scaled at 1 µM: pH 7.4; for half-life at 1 µM: pH 7.4, read-out: stability T1/2 in mouse microsome
Method: Mouse Liver Microsome Stability
Testing compound (1.5 μL) or reference compound (500 μM in 5% iPrOH and 95% acetonitrile) was mixed with 18.75 μL of 20 mg/mL liver microsome (Corning) and 479.75 μL of potassium phosphate buffer (0.1 M potassium phosphate buffer, 1 mM EDTA, pH 7.4). The reaction was started by mixing 30 μL of the above mixture (prewarmed to 37 °C) with 15 μL of 6 mM NADPH stock solution (prewarmed to 37 °C). After incubating for 5, 15, 30, or 45 min, 135 μL of acetonitrile containing internal standard was added to stop the reaction. For 0 min, the compound and microsome mixture were mixed with acetonitrile first before adding NADPH. After quenching, the reaction mixture was centrifuged, and the supernatant was taken and diluted for LC-MS

[2] = target: T1, VHL (Homo sapiens, UniProt P40337); assay: NanoBRET VHL target engagement, permeabilised-cell mode; type: cell-based; settings: HEK293 transfected with VHL-NanoLuc, tracer 0.5 μM
T1 construct: host or cells: HEK293, transient transfection
Source text: To this end, we assessed the PROTAC cellular permeability by evaluating VHL target engagement using the Promega NanoBRET TE Intracellular E3 Ligase.[62] Current PROTAC permeability assays use artificial systems like PAMPA and Caco-2, designed for small molecules but not always effective for PROTACs due to their low permeability, high molecular weight and assay caveats (i.e., unspecific binding and low recovery).[63],[64] The NanoBRET assay is a high-throughput method validated for measuring E3 ligase engagement in live and permeabilised cells. The assay allows to rank PROTAC intracellular availability through competitive probe displacement and offers a simple workflow for prioritising compounds based on properties associated with permeability. […] Specifically, in the live-cell mode, the assay measures the apparent cellular affinity, where the plasma membrane is intact and can impede the compound’s access to its target. In the permeabilised-cell mode, the barrier posed by the plasma membrane is removed and the intrinsic affinity of the compound for target is measured. […] The ratio of potencies between live-cell and permeabilised-cell modes, referred to as the relative-binding affinity (RBA) value increases as intracellular availability decreases and is thus a metric for assessing a PROTAC̀s cellular availability. […]

[3] = Kinetic solubility in phosphate buffer and FeSSIF; type: physicochemical; settings: kinetic from iPrOH stock
Method: Solubility in Phosphate Buffer and Fed State Simulated Intestinal Fluid (FeSSIF) 8 µL of reference or test compound stock solution (10 mM in iPrOH) was added to 792 μL of 100 mM phosphate buffer (pH 7.4) or FeSSIF (pH 5.8). The resulting mixture was shaken for 1 h (1000 rpm) at room temperature and then centrifuged for 10 min (12 000 rpm) to remove the undissolved particles. The supernatant was collected and diluted 10 times and 100 times separately with 100 mM phosphate buffer or FeSSIF. Five microliters of the supernatant samples (no diluted, 10 times diluted, 100 times diluted) were mixed with 95 μL of acetonitrile (containing internal standard) separately before injecting into LC-MS/MS for analysis. […]

[4] = LogD7.4 shake flask (octanol/phosphate buffer); type: physicochemical; settings: octanol/potassium phosphate buffer, pH 7.4
Source text: The modulation of lipophilicity could play a critical role in optimizing PROTACs. We thus utilized traditionally measured LogD values from shake flask experiments alongside chromatographically assessed ChromLogD values.[72] […] By incorporating ferrocene, permeability may be improved due to the feature of promoting IMHB-mediated compact conformations, while also balancing the lipophilicity of the polar ligand/PEG linkers. However, while sufficient lipophilicity is required for passive uptake over the cell membrane, it may also drive poor aqueous solubility.[73]
For the permeabilised-cell assay, 10 µL of digitonin was added, and plates were incubated in darkness for 5 minutes to allow permeabilisation. In each well 10 µL of the 10x PROTAC and vehicle control dilutions were dispensed. A 100x NanoBRET tracer solution (50 µM for VHL permeabilised-cell assay) was prepared with 100% DMSO, then diluted to a 20x solution with tracer dilution buffer. A 5 µL volume of tracer was dispensed into each well at a final concentration of 0.5 µM, and the plate was mixed at 300 RPM for 15 seconds. Finally, 50 µL of a 3x substrate solution (8.8 µL NanoBRET Nano-Glo substrate and 3,500 µL Opti-MEM) was added, and plates were incubated for 1 minute at room temperature before reading on a GloMax Discover as […]
HiBiT Lytic Assay with Zosuquidar Co-treatment […]
Luminescence was measured using the GloMax® Multiplex Luminescence and Fluorescence Protocol for 96-well plates. The luminescence signal for each well was normalised to the fluorescence signal and further normalised to the mean values from iPrOH-treated controls, then expressed as a ratio relative to the vehicle control. Curve fitting and DC50 values were determined in GraphPad Prism v.10.0.3 using nonlinear regression with a three-parameter logistic model to calculate DC50 values. […]
of 1 mL/min and a column temperature of 40 °C. […] Data were analysed with Shimadzu Open Solution Data Browser to obtain the RTs of the peak for each individual compound and standards. […]
ChromLogD values for the compounds were then calculated based on the regression curve. […]

[5] = FeSSIF pH 5.8, read-out: kinetic solubility FeSSIF (pH 5.8)
[6] = phosphate buffer, aqueous buffer, PBS pH 7.4, read-out: kinetic solubility PBS (pH 7.4)

T1 sequence (P40337 whole entry): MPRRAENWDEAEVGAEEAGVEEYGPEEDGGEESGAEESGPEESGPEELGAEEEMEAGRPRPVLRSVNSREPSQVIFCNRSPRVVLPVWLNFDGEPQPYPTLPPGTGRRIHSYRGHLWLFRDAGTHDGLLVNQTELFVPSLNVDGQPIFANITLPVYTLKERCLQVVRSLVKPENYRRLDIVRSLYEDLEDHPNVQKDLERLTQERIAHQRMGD

SMILES	CLint scaled at 1 µM [1]	half-life at 1 µM [1]	pIC50 [2]	solubility kinetic at 1 h [3, 5]	solubility kinetic at 1 h [3, 6]	logD [4]
Cc1ncsc1-c1ccc(CNC(=O)[C@@H]2C[C@@H](O)CN2C(=O)[C@@H](NC(=O)CCCCCOCCOCCCCCC(=O)Nc2cccc3c2C(=O)N(C2CCC(=O)NC2=O)C3=O)C(C)(C)C)cc1 (stereo partly drawn) [14a]	5090 mL/min/kg	1.1 min	6.52	59.5 µM (≈ 57 µg/mL)	8.7 µM (≈ 8.34 µg/mL)	3.3
Cc1ncsc1-c1ccc(CNC(=O)[C@@H]2C[C@@H](O)CN2C(=O)[C@@H](NC(=O)COCCOCCOCCOCCOCCOCC(=O)N[C@H](C(=O)N2C[C@H](O)C[C@H]2C(=O)NCc2ccc(-c3scnc3C)cc2)C(C)(C)C)C(C)(C)C)cc1 [CM11]	212 mL/min/kg	25.8 min	6.52	38.6 µM (≈ 45.5 µg/mL)	58.2 µM (≈ 68.6 µg/mL)	2.9
